Measurements: patent publication US20230069712A1, “COMPOUNDS FOR THE INDUCTION OF ANTIGEN-SPECIFIC IMMUNE TOLERANCE” (Anokion SA, priority 2019, published 2023)
No end group written: not given here.

System: multiple sclerosis pathology (EAE disease)
Assay: Mouse experimental autoimmune encephalomyelitis (EAE) model
Assay type: in vivo, mice
Conditions: intravenous injection on day 0, 3, and 6; adoptive transfer of MOG35-55-reactive T cells
Description: Myelin oligodendrocyte glycoprotein (MOG) 30-60 is a fragment of an autoantigen that is associated with multiple sclerosis that is used herein as a non-limiting example of an immunogenic fragment of MOG. […] To induce multiple sclerosis pathology (EAE disease), recipient mice were adoptively transferred on day 0 with MOG35-55-reactive T cells obtained from a separate, previously-vaccinated donor mouse. On day 0, 3, and 6, mice received via intravenous injection of either MOG30-60 peptide, MOG-30-60 peptide chemically conjugated to pGal (LT-MOG-30-60), or saline; an additional control group received administrations of a monoclonal antibody that binds VLA-4 (integrin alpha 4 beta 1). Multiple sclerosis pathology was assessed and scored daily by a pharmacology expert blinded to group identities. […] It shall be appreciated that, according to additional embodiments disclosed herein, other immunogenic fragments of MOG are effective in inducing tolerance to MOG, and thus treatment of MS.

MOG30-60: Myelin oligodendrocyte glycoprotein (MOG) 30-60 peptide, SEQ ID NO: 30, administered alone (KNATGMEVGWYRSPFSRVVHLYRNGKDQDAE; MOG 30-60; listed as Homo sapiens)
protection from multiple sclerosis pathology (EAE disease), daily score: not substantively protected from disease

pGal-MOG30-60: MOG-30-60 peptide chemically conjugated to pGal (e.g., Polymer B) (KNATGMEVGWYRSPFSRVVHLYRNGKDQDAE; also: chemically conjugated to pGal polymer (e.g. Polymer B), site not given here; UniProt Q61885 58-88, looked up, fragment)
protection from multiple sclerosis pathology (EAE disease), daily score: protected from multiple sclerosis pathology (EAE disease)
